Experiment: mn = molality of the nth substance listed, in mol/kg
Conditions: 84.5 kPa, Liquid; for speed of sound: Frequency=3 MHz, Sing-around technique in a fixed-path interferometer; for mass density: Vibrating tube method

O=C(CO)[C@@H](O)[C@H](O)[C@H](O)CO [D-fructose] + O
Conditions	mass density, 288.15 K [kg/m3]	mass density, 293.15 K [kg/m3]	mass density, 298.15 K [kg/m3]	mass density, 303.15 K [kg/m3]	mass density, 308.15 K [kg/m3]	speed of sound, 288.15 K [m/s]	speed of sound, 293.15 K [m/s]	speed of sound, 298.15 K [m/s]	speed of sound, 303.15 K [m/s]	speed of sound, 308.15 K [m/s]
m1 = 0.1716	–	–	1008.73	–	–	1478.9	1494.4	1508	1519.8	1529.9
m1 = 0.2312	1015.03	1013.99	1012.69	–	1009.43	1483.2	1498.5	1511.8	–	1533.4
m1 = 0.292	1019.08	1018	1016.66	1015.1	1013.34	1487.5	–	1515.7	1527.1	1536.9
m1 = 0.4825	1031.39	1030.21	1028.76	1027.1	1025.25	1500.9	1515.3	–	–	1547.8
m1 = 0.6161	1039.7	1038.45	1036.93	1035.21	1033.29	1510.2	1524.1	1536.2	1546.5	1555.3
m1 = 0.9787	1061.06	1059.67	1057.92	1056.02	1053.95	1534.7	1547.5	1558.4	1567.7	1575.5
m1 = 1.386	1083.13	1081.5	1079.62	1077.55	1075.32	1561.6	1572.9	1582.5	1590.7	1597.3
m1 = 1.851	1106.02	1104.26	1102.2	1099.94	1097.55	1588.9	1599.1	1607.5	1614.3	1619.9
m1 = 2.379	1129.63	1127.76	1125.52	1123.09	1120.53	1622.1	1630.8	1637.6	1643	1647.2
m1 = 2.981	1153.68	1151.66	1149.24	1146.65	1143.92	1655.5	1662.7	1668	1671.9	1674.7
m1 = 3.667	1178.12	1175.94	1173.34	1170.58	1167.69	1691	1696.5	1700.1	1702.5	1703.9

O=C[C@H](O)[C@@H](O)[C@H](O)[C@H](O)CO [D-glucose] + O
Conditions	mass density, 288.15 K [kg/m3]	mass density, 293.15 K [kg/m3]	mass density, 298.15 K [kg/m3]	mass density, 303.15 K [kg/m3]	mass density, 308.15 K [kg/m3]	speed of sound, 288.15 K [m/s]	speed of sound, 293.15 K [m/s]	speed of sound, 298.15 K [m/s]	speed of sound, 303.15 K [m/s]	speed of sound, 308.15 K [m/s]
m1 = 0.2921	1018.67	1017.62	1016.34	1014.83	1013.12	–	1501	1514.3	1526	1535.9
m1 = 0.4836	1030.78	1029.64	1028.28	1026.7	1024.93	1498.4	1513	1525.9	1537.1	1546.6
m1 = 0.6164	1038.85	1037.66	1036.24	1034.62	1032.81	1507	1521.3	1533.9	1544.7	1554
m1 = 0.9795	1059.74	1058.4	1056.86	1055.12	1053.22	1530.3	–	1555.2	1565.2	1573.6
m1 = 1.388	1081.24	1079.76	1078.09	1076.24	1074.24	1555.6	1567.8	1578.4	1587.4	1595
m1 = 1.85	1103.58	1101.95	1100.14	1098.18	1096.07	1583.6	1594.7	1604.2	1612.2	1618.8
m1 = 2.379	1126.54	1124.77	1122.85	1120.79	1118.58	1613.6	1623.3	1631.7	1638.6	1644.3
m1 = 2.989	1150.24	1148.34	1146.3	1144.14	1141.85	1646	1654.4	1661.4	1667.2	1671.8
m1 = 3.7	1174.74	1172.71	1170.56	1168.3	1165.92	1681.2	1688	1693.8	1698.3	1701.8

OC[C@H]1O[C@@](CO)(O[C@H]2O[C@H](CO)[C@@H](O)[C@H](O)[C@H]2O)[C@@H](O)[C@@H]1O [D-sucrose] + O
Conditions	mass density, 288.15 K [kg/m3]	mass density, 293.15 K [kg/m3]	mass density, 298.15 K [kg/m3]	mass density, 303.15 K [kg/m3]	mass density, 308.15 K [kg/m3]	speed of sound, 288.15 K [m/s]	speed of sound, 293.15 K [m/s]	speed of sound, 298.15 K [m/s]	speed of sound, 303.15 K [m/s]	speed of sound, 308.15 K [m/s]
m1 = 0.09036	1010.86	1009.89	1008.67	1007.22	1005.55	1475.4	1491.1	1504.9	1516.9	1527.3
m1 = 0.1217	1014.83	1013.84	1012.59	1011.12	1009.43	1478.5	1494	1507.7	1519.6	1529.8
m1 = 0.1537	1018.82	1017.8	1016.53	1015.04	1013.34	1481.6	1497	1510.6	1522.3	1532.5
m1 = 0.2538	1030.98	1029.88	1028.55	1027	1025.25	1491.5	1506.4	1519.5	1530.9	1540.7
m1 = 0.3245	1039.25	1038.1	1036.73	1035.14	1033.35	1498.3	1513	1525.8	1537	1546.5
m1 = 0.5156	1060.41	1059.13	1057.64	1055.96	1054.09	1516.8	1530.7	1542.8	1553.2	1562
m1 = 0.729	1082.25	1080.85	1079.25	1077.46	1075.5	1537.3	1550.2	1561.5	1571.1	1579.2
m1 = 0.9736	1105.1	1103.56	1101.84	1099.96	1097.9	1559.9	1571.9	1582.2	1591	1598.4
m1 = 1.252	1128.74	1127.07	1125.24	1123.25	1121.11	1585.2	1596.1	1605.4	1613.3	1619.7
m1 = 1.573	1153.12	1151.33	1149.38	1147.28	1145.06	1613	1622.7	1630.9	1637.7	1643.2
m1 = 1.948	1178.48	1176.55	1174.48	1172.29	1169.98	1643.8	1652.1	1659.1	1664.8	1669.3

Reference: the NIST ThermoML archive (doi:10.1021/acs.jced.6b00232)
